# From the NIST ThermoML archive (doi:10.1021/je9004036)
# “And” between values parts separate entries of the source, which are not always exact repeats. Identical values can stand only once. ± gives the expanded uncertainty stated by the source.
# Experiments:
# [1] = for vapor or sublimation pressure: Liquid, Calculated from knudsen effusion weight loss; for Normal melting temperature: Crystal, DTA
# [2] = Molar enthalpy of transition or fusion; details: Crystal 1; DSC
structure (smiles),measurement,setting,value
COc1cc(C(=O)O)ccc1N [4-amino-3-methoxybenzoic acid],vapor or sublimation pressure,[1]; 373.14 K,0.000103 ± 2e-05 kPa and 0.000102 ± 2e-05 kPa
same,vapor or sublimation pressure,[1]; 375.15 K,0.00013 ± 2.1e-05 kPa and 0.000127 ± 2.1e-05 kPa and 0.000126 ± 2.1e-05 kPa
same,vapor or sublimation pressure,[1]; 377.18 K,0.000163 ± 2.1e-05 kPa and 0.000156 ± 2.1e-05 kPa and 0.000153 ± 2.1e-05 kPa
same,vapor or sublimation pressure,[1]; 379.17 K,0.000192 ± 2.1e-05 kPa and 0.000186 ± 2.1e-05 kPa and 0.000196 ± 2.1e-05 kPa
same,vapor or sublimation pressure,[1]; 381.17 K,0.00025 ± 2.2e-05 kPa and 0.00024 ± 2.2e-05 kPa and 0.000232 ± 2.2e-05 kPa
same,vapor or sublimation pressure,[1]; 383.18 K,0.000301 ± 2.3e-05 kPa
same,vapor or sublimation pressure,[1]; 385.16 K,0.000384 ± 2.4e-05 kPa and 0.000376 ± 2.4e-05 kPa and 0.000374 ± 2.4e-05 kPa
same,vapor or sublimation pressure,[1]; 387.17 K,0.000476 ± 2.6e-05 kPa and 0.000455 ± 2.6e-05 kPa and 0.000444 ± 2.5e-05 kPa
same,vapor or sublimation pressure,[1]; 389.16 K,0.000587 ± 2.9e-05 kPa and 0.000573 ± 2.9e-05 kPa and 0.00057 ± 2.8e-05 kPa
same,vapor or sublimation pressure,[1]; 391.17 K,0.000724 ± 3.3e-05 kPa and 0.000696 ± 3.2e-05 kPa and 0.000678 ± 3.1e-05 kPa
same,vapor or sublimation pressure,[1]; 393.17 K,0.000864 ± 3.7e-05 kPa and 0.000841 ± 3.6e-05 kPa and 0.000826 ± 3.5e-05 kPa
same,vapor or sublimation pressure,[1]; 395.17 K,0.001037 ± 8.1e-05 kPa and 0.001005 ± 7.8e-05 kPa and 0.000971 ± 4e-05 kPa
same,Normal melting temperature,[1],189.20 ± 1.6 °C
same,Molar enthalpy of transition or fusion,[2],6.04 ± 0.146 kcal/mol
COc1cc(N)cc(C(=O)O)c1 [3-amino-5-methoxybenzoic acid],vapor or sublimation pressure,[1]; 380.16 K,0.000125 ± 2e-05 kPa and 0.000123 ± 2e-05 kPa
same,vapor or sublimation pressure,[1]; 381.19 K,0.000138 ± 2.1e-05 kPa and 0.000135 ± 2.1e-05 kPa and 0.000131 ± 2.1e-05 kPa
same,vapor or sublimation pressure,[1]; 383.18 K,0.000174 ± 2.1e-05 kPa and 0.000164 ± 2.1e-05 kPa and 0.000156 ± 2.1e-05 kPa
same,vapor or sublimation pressure,[1]; 385.16 K,0.000201 ± 2.1e-05 kPa and 0.000217 ± 2.1e-05 kPa and 0.000208 ± 2.1e-05 kPa
same,vapor or sublimation pressure,[1]; 387.2 K,0.000269 ± 2.2e-05 kPa and 0.000253 ± 2.2e-05 kPa and 0.000242 ± 2.2e-05 kPa
same,vapor or sublimation pressure,[1]; 389.16 K,0.000325 ± 2.3e-05 kPa and 0.000316 ± 2.3e-05 kPa and 0.000301 ± 2.3e-05 kPa
same,vapor or sublimation pressure,[1]; 393.19 K,0.000511 ± 2.7e-05 kPa and 0.00049 ± 2.6e-05 kPa and 0.000473 ± 2.6e-05 kPa
same,vapor or sublimation pressure,[1]; 395.18 K,0.000631 ± 3e-05 kPa and 0.000591 ± 2.9e-05 kPa and 0.00057 ± 2.8e-05 kPa
same,vapor or sublimation pressure,[1]; 397.18 K,0.000773 ± 3.4e-05 kPa
same,vapor or sublimation pressure,[1]; 399.19 K,0.000917 ± 3.8e-05 kPa and 0.000887 ± 3.7e-05 kPa and 0.000862 ± 3.7e-05 kPa
same,vapor or sublimation pressure,[1]; 400.18 K,0.001003 ± 7.8e-05 kPa and 0.00094 ± 3.9e-05 kPa and 0.000926 ± 3.8e-05 kPa
same,Normal melting temperature,[1],183.79 ± 0.87 °C
same,Molar enthalpy of transition or fusion,[2],5.35 ± 0.122 kcal/mol
COc1cccc(C(=O)O)c1N [2-amino-3-methoxybenzoic acid],vapor or sublimation pressure,[1]; 349.12 K,0.000123 ± 2e-05 kPa and 0.000121 ± 2e-05 kPa
same,vapor or sublimation pressure,[1]; 351.18 K,0.000152 ± 2.1e-05 kPa and 0.00015 ± 2.1e-05 kPa and 0.000149 ± 2.1e-05 kPa
same,vapor or sublimation pressure,[1]; 353.19 K,0.000194 ± 2.1e-05 kPa and 0.000186 ± 2.1e-05 kPa and 0.000183 ± 2.1e-05 kPa
same,vapor or sublimation pressure,[1]; 355.13 K,0.000235 ± 2.2e-05 kPa and 0.000232 ± 2.2e-05 kPa and 0.000234 ± 2.2e-05 kPa
same,vapor or sublimation pressure,[1]; 357.18 K,0.000297 ± 2.3e-05 kPa and 0.000285 ± 2.2e-05 kPa and 0.000283 ± 2.2e-05 kPa
same,vapor or sublimation pressure,[1]; 359.12 K,0.000362 ± 2.4e-05 kPa and 0.000356 ± 2.4e-05 kPa and 0.000355 ± 2.4e-05 kPa
same,vapor or sublimation pressure,[1]; 360.13 K,0.000407 ± 2.5e-05 kPa and 0.000404 ± 2.5e-05 kPa and 0.0004 ± 2.5e-05 kPa
same,vapor or sublimation pressure,[1]; 361.16 K,0.000446 ± 2.6e-05 kPa and 0.000437 ± 2.5e-05 kPa and 0.000431 ± 2.5e-05 kPa
same,vapor or sublimation pressure,[1]; 363.18 K,0.000552 ± 2.8e-05 kPa and 0.000537 ± 2.8e-05 kPa and 0.000527 ± 2.7e-05 kPa
same,vapor or sublimation pressure,[1]; 367.18 K,0.000847 ± 3.6e-05 kPa and 0.000823 ± 3.5e-05 kPa and 0.000808 ± 3.5e-05 kPa
same,vapor or sublimation pressure,[1]; 369.18 K,0.001031 ± 8e-05 kPa and 0.001004 ± 7.8e-05 kPa and 0.000983 ± 4e-05 kPa
same,Normal melting temperature,[1],169.86 ± 0.63 °C
same,Molar enthalpy of transition or fusion,[2],5.79 ± 0.131 kcal/mol
COc1ccc(C(=O)O)cc1N [3-amino-4-methoxybenzoic acid],vapor or sublimation pressure,[1]; 379.67 K,0.00014 ± 2.1e-05 kPa and 0.000138 ± 2.1e-05 kPa and 0.000135 ± 2.1e-05 kPa
same,vapor or sublimation pressure,[1]; 381.72 K,0.000174 ± 2.1e-05 kPa and 0.000169 ± 2.1e-05 kPa and 0.000164 ± 2.1e-05 kPa
same,vapor or sublimation pressure,[1]; 383.68 K,0.000215 ± 2.1e-05 kPa and 0.000205 ± 2.1e-05 kPa and 0.000199 ± 2.1e-05 kPa
same,vapor or sublimation pressure,[1]; 385.16 K,0.000247 ± 2.2e-05 kPa and 0.000252 ± 2.2e-05 kPa
same,vapor or sublimation pressure,[1]; 387.19 K,0.000306 ± 2.3e-05 kPa and 0.000298 ± 2.3e-05 kPa and 0.00029 ± 2.2e-05 kPa
same,vapor or sublimation pressure,[1]; 389.18 K,0.000382 ± 2.4e-05 kPa and 0.000363 ± 2.4e-05 kPa and 0.000353 ± 2.4e-05 kPa
same,vapor or sublimation pressure,[1]; 391.17 K,0.000455 ± 2.6e-05 kPa
same,vapor or sublimation pressure,[1]; 393.21 K,0.000568 ± 2.8e-05 kPa and 0.000557 ± 2.8e-05 kPa and 0.000536 ± 2.8e-05 kPa
same,vapor or sublimation pressure,[1]; 395.18 K,0.000698 ± 3.2e-05 kPa and 0.000676 ± 3.1e-05 kPa
same,vapor or sublimation pressure,[1]; 397.2 K,0.000832 ± 3.6e-05 kPa and 0.000811 ± 3.5e-05 kPa and 0.000786 ± 3.4e-05 kPa
same,vapor or sublimation pressure,[1]; 399.18 K,0.001028 ± 8e-05 kPa and 0.000967 ± 4e-05 kPa and 0.000941 ± 3.9e-05 kPa
same,Normal melting temperature,[1],204.72 ± 0.6 °C
same,Molar enthalpy of transition or fusion,[2],6.06 ± 0.136 kcal/mol
COc1ccc(N)c(C(=O)O)c1 [2-amino-5-methoxybenzoic acid],vapor or sublimation pressure,[1]; 353.13 K,0.0001 ± 2e-05 kPa and 0.000101 ± 2e-05 kPa
same,vapor or sublimation pressure,[1]; 355.15 K,0.000131 ± 2.1e-05 kPa and 0.000128 ± 2.1e-05 kPa and 0.00013 ± 2.1e-05 kPa
same,vapor or sublimation pressure,[1]; 357.2 K,0.000159 ± 2.1e-05 kPa and 0.000158 ± 2.1e-05 kPa
same,vapor or sublimation pressure,[1]; 359.18 K,0.000202 ± 2.1e-05 kPa and 0.000196 ± 2.1e-05 kPa and 0.000195 ± 2.1e-05 kPa
same,vapor or sublimation pressure,[1]; 361.15 K,0.000251 ± 2.2e-05 kPa and 0.000249 ± 2.2e-05 kPa and 0.000252 ± 2.2e-05 kPa
same,vapor or sublimation pressure,[1]; 363.2 K,0.000316 ± 2.3e-05 kPa and 0.000304 ± 2.3e-05 kPa and 0.000306 ± 2.3e-05 kPa
same,vapor or sublimation pressure,[1]; 365.18 K,0.000384 ± 2.4e-05 kPa and 0.000376 ± 2.4e-05 kPa
same,vapor or sublimation pressure,[1]; 367.16 K,0.000479 ± 2.6e-05 kPa and 0.000458 ± 2.6e-05 kPa and 0.000447 ± 2.6e-05 kPa
same,vapor or sublimation pressure,[1]; 369.18 K,0.000577 ± 2.9e-05 kPa and 0.000562 ± 2.8e-05 kPa and 0.000553 ± 2.8e-05 kPa
same,vapor or sublimation pressure,[1]; 371.14 K,0.000723 ± 3.3e-05 kPa and 0.000704 ± 3.2e-05 kPa and 0.000716 ± 3.2e-05 kPa
same,vapor or sublimation pressure,[1]; 373.17 K,0.000898 ± 3.8e-05 kPa and 0.000864 ± 3.7e-05 kPa and 0.000856 ± 3.6e-05 kPa
same,vapor or sublimation pressure,[1]; 375.17 K,0.001076 ± 8.5e-05 kPa and 0.001049 ± 8.2e-05 kPa and 0.001039 ± 8.1e-05 kPa
same,Normal melting temperature,[1],151.81 ± 0.84 °C
same,Molar enthalpy of transition or fusion,[2],5.47 ± 0.124 kcal/mol
